Test results taken from PMC6344527, “Toxicity and possible mechanisms of action of honokiol from Magnolia denudata seeds against four mosquito species” (Scientific Reports, 2019).
In brackets after ≈: the same amount, converted by molar mass. Like-named read-outs stand apart in the source and are kept apart here.

What was measured:
[1] = tested on: mosquito species larvae; conditions: cited from earlier work
[2] = tested on: third-instar larvae of insecticide-susceptible Aedes aegypti; assay: contact mortality bioassay, 24 h exposure; type: in vivo; conditions: Table 7, structure-activity series, 24 h exposure; for LC50: Aedes aegypti, 24 h, read-out: LC50 (mg/L) (95% CI)
Description: (§1) A contact mortality bioassay[25] was used to evaluate the toxicity of all compounds against third-instar larvae of the four mosquito species. Each test compound in methanol was suspended in DW with Triton X-100 (20 µL/L). Groups of 20 mosquito larvae were separately placed into paper cups (270 mL) containing each compound solution (250 mL). […] Negative controls consisted of a methanol–Triton X-100 solution in DW.
(§2) Treated and control (methanol–Triton X-100 solution only) larvae were maintained under the same conditions as those used for colony maintenance without providing food. Larval mortalities were determined 24 h post-treatment. […] All treatments were performed three times using 20 larvae per replicate.
(§3) The concentration of the test compounds required to produce 50% AChE inhibitory activity (IC50) was determined using the SAS 9.13 program (Cary: SAS Institute; 2014). Concentration-mortality data were subjected to probit analysis using the SAS 9.13 program. […] Statistical analyses were performed using the SAS 9.13 program. Multiple linear regression and correlation analysis were performed using the SPSS 24 program (Armonk: IBM Corp.; 2016).

[3] = tested on: third-instar larvae of insecticide-susceptible Culex pipiens pallens; assay: contact mortality bioassay, 24 h exposure; type: in vivo; conditions: Table 6, structure-activity series, 24 h exposure; for LC50: Culex pipiens, 24 h, read-out: LC50 (mg/L) (95% CI)
Description: as §1, §2, §3

[4] = target: acetylcholinesterase (AChE) from third-instar Ae. aegypti larvae (Aedes aegypti, UniProt A4GND7); assay: acetylcholinesterase inhibition assay; type: biochemical; conditions: based on IC50 values
Sequence of acetylcholinesterase (AChE) from third-instar Ae. aegypti larvae (A4GND7 37-679): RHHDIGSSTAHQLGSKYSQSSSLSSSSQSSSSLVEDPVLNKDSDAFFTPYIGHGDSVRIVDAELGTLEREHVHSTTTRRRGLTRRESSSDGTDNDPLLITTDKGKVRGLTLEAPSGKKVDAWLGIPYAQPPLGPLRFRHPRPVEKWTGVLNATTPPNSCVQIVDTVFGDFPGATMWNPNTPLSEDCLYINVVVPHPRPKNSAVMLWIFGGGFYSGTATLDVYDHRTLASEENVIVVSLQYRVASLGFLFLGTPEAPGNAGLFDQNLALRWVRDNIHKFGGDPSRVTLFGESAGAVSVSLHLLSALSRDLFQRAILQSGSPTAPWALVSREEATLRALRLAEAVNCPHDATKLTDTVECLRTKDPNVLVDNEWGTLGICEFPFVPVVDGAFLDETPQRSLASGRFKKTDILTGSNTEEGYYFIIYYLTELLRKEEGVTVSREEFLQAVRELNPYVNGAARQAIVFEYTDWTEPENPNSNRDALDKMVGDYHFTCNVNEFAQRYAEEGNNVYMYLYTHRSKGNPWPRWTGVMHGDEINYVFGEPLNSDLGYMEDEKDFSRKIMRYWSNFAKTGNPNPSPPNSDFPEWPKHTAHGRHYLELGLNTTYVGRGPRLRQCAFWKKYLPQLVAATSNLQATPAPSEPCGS
Description: The in vitro AChE inhibitory activity of the test compounds was assessed according to the method of Perumalsamy et al.[42]. Third-instar Ae. aegypti larvae were used in all experiments. Whole bodies of 50 larvae were homogenized in 1 mL of ice-cold 0.1 M phosphate buffer (pH 8.0) using a glass tissue homogenizer. After filtering through cheesecloth, the homogenate was centrifuged at 1,000 × g at 4 °C for 5 min. The supernatant was used directly as the enzyme source for AChE. The protein levels were determined using the Bradford Protein Assay Kit (Bio-Rad Laboratories, Hercules, CA, USA) using BSA as the standard. The reaction mixture consisted of 50 µL of the crude enzyme preparation (4.3–4.8 µg protein equivalents), 150 µL of 0.1 M phosphate buffer, 20 µL of 3 mM DTNB in phosphate buffer (pH 7.0), and 1 µL of various concentrations of each test compound in ethanol. The reaction mixture was incubated at 30 °C for 5 min, and 20 µL of 32 mM ATChI was then added to the mixture. After incubation for 30 min, the reaction was terminated by adding 20 µL of 5 mM eserine salicylate. Absorbance was recorded at 412 nm using a VersaMax microplate reader (Molecular Devices, Sunnyvale, CA, USA). […] The results are expressed as the means ± standard errors (SEs) of triplicate samples from three independent experiments.
as §3

[5] = tested on: whole-body homogenate from third-instar Aedes aegypti larvae (adenylate cyclase activity); assay: determination of cyclic AMP levels (octopamine-sensitive adenylate cyclase activity); type: biochemical; conditions: 100 μM; compared with control group / octopamine
Description: The method of Perumalsamy et al.[42] was used to assess the in vitro octopamine-sensitive adenylate cyclase activity of the test compounds. In brief, whole bodies of 75 Ae. aegypti larvae (106.2 mg) were homogenized in 500 µL of 2 mM Tris-maleate buffer (pH 7.4) containing 0.8 mM ethylene glycol tetraacetic acid (EGTA). The adenylate cyclase activity was determined using the cAMP Biotrak Enzymeimmunoassay system according to the manufacturer’s protocol. The assay was conducted in a total volume of 100 µL containing 80 mM Tris-maleate buffer, 5 mM theophylline, 2 mM MgSO4, 0.5 mM adenosine triphosphate (ATP), 0.2 mM EGTA, 50 µL of whole-body homogenate (equivalent to 4.12 µg protein), and 1 µL of the test compounds in Tris-maleate buffer containing 0.2% ethanol. After incubation at 20 °C for 5 min, the reaction was initiated by addition of ATP. Incubation was performed at 30 °C for 3 min in a shaking water bath. The reaction was stopped by boiling for 2 min, and then, the assay tube was cooled and centrifuged at 8,000 × g for 10 min. Fifty microliters of the supernatant were assayed for cAMP levels.
Polystyrene microplates (1 strip of 8 wells) coated with a goat anti-mouse polyclonal antibody were used. Fifty microliters of a mouse monoclonal antibody solution were added to each well except for the blank wells (or the nonspecific binding wells). The wells covered with the adhesive strip were incubated at 25 °C for 1 h in a shaking incubator (480 rpm). After washing with 400 µL of wash buffer four times, 50 μL of the two neolignan samples for cAMP determination and cAMP standard were added to wells. Control, blank (nonspecific binding), and zero standard wells were supplemented with 50 μL of a diluent RD5-55 buffer. […] The optical densities at 450 and 540 nm were determined using the microplate reader described above. The readings at 540 nm were subtracted from the readings at 450 nm. The cAMP concentrations are expressed as nmol/µg protein. The results are expressed as the means ± SEs of triplicate samples from three independent experiments.

For `CCOC(=O)C=Cc1ccc(OC)cc1` [ethyl p-methoxycinnamate], the LC50 ([1]; phenylpropanoids) is listed as 12.3 to 20.7 µg/mL.
For `C=C[C@@H](O)C#CC#C[C@@H](O)/C=C\CCCCCCC` [falcarindiol], the LC50 ([1]; acetylenic alcohols) is listed as 6.51 µg/mL (≈ 25 µM).
For `C=C[C@H](O)C#CC#CC/C=C\CCCCCCC` [falcarinol], the LC50 ([1]; acetylenic alcohols) is given as 3.49 µg/mL (≈ 14.3 µM).
In the case of `CC(C)=C1C[C@H]2C(=C(C)CC1=O)CC[C@]2(C)O` [neoprocurcumenol], the LC50 ([1]; terpenoids) is given as 13.69 µg/mL (≈ 58.4 µM).
With `C=CCc1cccc(OC)c1O` [o-Eugenol, o-eugenol] the LC50 [2] was 8.84 mg/L (≈ 53.8 µM), the “LC90 (mg/L) (95% CI)” value [2] was 24.01 (19.52–33.06) mg/L and the LC50 [3] was 7.46 mg/L (≈ 45.4 µM). The “LC90 (mg/L) (95% CI)” value [3] was 23.13 (18.42–33.49) mg/L and the “AChE inhibitory activity (in words)” value [4] was “relatively weak AChE inhibitors”.
In the case of `NCC(O)c1ccc(O)cc1` (stereo not drawn) [octopamine, reference compound], the cAMP levels [5] is reported as “did not differ significantly”.
In the case of `CCCCCCCC/C=C\CCCCCCCC(=O)O` [oleic acid], the LC50 ([1]; flavonoids and fatty acids) is listed as 18.07 to 18.45 µg/mL.
For `Oc1ccc(-c2ccc(O)cc2)cc1` [p,p′-Biphenol, p,p′-biphenol], the LC50 [2] was 8.34 mg/L (≈ 44.8 µM), the “LC90 (mg/L) (95% CI)” value [2] was 27.76 (21.50–42.52) mg/L and the LC50 [3] was 7.52 mg/L (≈ 40.4 µM). For the same molecule, the “LC90 (mg/L) (95% CI)” value [3] was 23.97 (18.97–35.16) mg/L and the “AChE inhibitory activity (in words)” value [4] was “relatively weak AChE inhibitors”.
In the case of `CCc1ccc(O)cc1` [p-Ethylphenol, p-ethylphenol], the LC50 [2] is reported as 9.03 mg/L (≈ 73.9 µM), the “LC90 (mg/L) (95% CI)” value [2] is reported as 30.57 (23.29–48.51) mg/L and the LC50 [3] is reported as 8.3 mg/L (≈ 67.9 µM). The “LC90 (mg/L) (95% CI)” value [3] was 25.86 (20.36–38.21) mg/L and the “AChE inhibitory activity (in words)” value [4] was “relatively weak AChE inhibitors”.
In the case of (−)-asarinin, the LC50 ([1]; lignans) is listed as 10.49 to 16.49 µg/mL.
For isoeugenol, the “LC90 (mg/L) (95% CI)” value [2] was 137.2 (124.3–161.2) mg/L and the “LC90 (mg/L) (95% CI)” value [3] was 138.1 (124.4–164.5) mg/L.
